Experimental data taken from patent US9730949B2, “Angiotensin converting enzyme inhibitors for treating optic neuropathy or congenital optic atrophy” (priority 2012, dated 2017).

Assays:
Assay type in all cases: in vivo, human
[1] = tested on: optic neuropathy or congenital optic atrophy; assay: Other ACE inhibitors in patients with the same optic neuropathy or congenital optic atrophy as in Examples 1 to 5; details: patients as in Examples 1 to 5, similar procedures; present tense, no data
Experimental: Fosinoprilate, trandolaprilate, moexiprilate, quinaprilate, enalaprilate, perindoprilate and benazeprilate, as well as captopril and lisinopril are also tested in patients having the same optic neuropathy or congenital optic atrophy as in Examples 1 to 5 using similar procedures.

Leber's optic neuropathy = assay: Visual acuity after treatment in patients with Leber's optic neuropathy; details: intravitreal 2% (w/v), 0.1 to 0.2 ml, once every 15 days, three injections
Experimental: Patient two has Leber's optic neuropathy with a visual acuity of 1/20 in the right eye and zero in the left eye prior to treatment.
An intraocular injection (intravitreal) of 2% (w/v) ramiprilate in a quantify of 0.1 to 0.2 ml, which was injected once every 15 days for a total of three injections. The visual acuity was measured after this treatment. The results of 2/10 in the right eye and 1/20 in the left eye were achieved,
Patient one has Leber's optic neuropathy and had only bright perceptions in two eyes. Visual acuity was measured prior to treatment.
An intraocular injection (intravitreal) of 2% (w/v) ramiprilate in a quantity of 0.1 to 0.2 ml, which was infected once every 15 days for a total of three injections. The visual acuity was measured after this treatment. The visual acuity was 2/10 for both eyes.

[2] = tested on: bilateral asymmetric anterior optic neuropathy ischemia; assay: Visual acuity after treatment in a patient with anterior optic neuropathy ischemia; details: patient three; intravitreal 2% (w/v), 0.1 to 0.2 ml, once every 15 days, three injections; 1/10 in both eyes prior to treatment
Experimental: FIGS. 3 and 4 show a fluoangiography of MM before treatment.
MM was administered an intravitreal injection of 2% (w/v) ramiprilate in a quantify of 0.1 to 0.2 ml, which was injected once every 15 days for a total of three injections. The visual acuity was then taken and was 5/10 for both eyes.

[3] = tested on: dominant recessive congenital optic atrophy; assay: Visual acuity after treatment in patients with dominant recessive congenital optic atrophy; details: 2 patients; eye drops 2% (w/v), 2 times per day for 3 months
Experimental: 2 patients that have dominant recessive congenital optic atrophy had bad visual acuity.
These 2 patients were treated with eye drops containing 2% (w/v) ramiprilate 2 times per day for a duration of 3 months.

[4] = tested on: central artery occlusion of the retina; assay: Visual acuity after treatment in patients with central artery occlusion of the retina
Experimental: FIG. 5 is a fundus photograph of patient four before treatment.
(§1) One was administered 2% (w/v) ramprilate in an eye drop formulation twice a day for 3 months, while the other was administered 2% (w/v) ramprilate in via an intravitreal injection ramiprilate in a quantity of 0.1 to 0.2 ml, which was injected once every 15 days for a total of three injections.

[5] = tested on: toxication by ingestion of methyl alcohol; assay: Visual acuity after treatment in patients with toxication by ingestion of methyl alcohol
Experimental: 2 patients (SR and WW) suffering from toxication by ingestion of methyl alcohol has bad visual acuity. FIG. 6 is a fluoangiography of SR prior to treatment. FIG. 7 is an optical coherence tomography scan of SR before treatment.
as §1, with “One patient” for “One”, “other patient” for “other”

| SMILES | visual acuity [1] | further results |
| --- | --- | --- |
| C[C@H](CS)C(=O)N1CCC[C@H]1C(=O)O [captopril] | improvement in visual acuity | – |
| NCCCC[C@H](N[C@@H](CCc1ccccc1)C(=O)O)C(=O)N1CCC[C@H]1C(=O)O [lisinopril] | improvement in visual acuity | – |
| CCC[C@H](N[C@@H](C)C(=O)N1[C@H](C(=O)O)C[C@@H]2CCCC[C@@H]21)C(=O)O [perindoprilate] | improvement in visual acuity | – |
| C[C@H](N[C@@H](CCc1ccccc1)C(=O)O)C(=O)N1Cc2ccccc2C[C@H]1C(=O)O [quinaprilate] | improvement in visual acuity | – |
| O=C(O)[C@@H]1C[C@@H](C2CCCCC2)CN1C(=O)CP(=O)(O)CCCCc1ccccc1 [Fosinoprilate, fosinoprilate] | improvement in visual acuity | – |
| CC(NC(CCc1ccccc1)C(=O)O)C(=O)N1C(C(=O)O)CC2CCCC21 (stereo not drawn) [ramiprilate] | – | visual acuity, both eyes, after treatment (Leber's optic neuropathy; patient one, only bright perceptions in two eyes before): 2/10; visual acuity, right eye, after treatment (Leber's optic neuropathy; patient two, 1/20 prior to treatment): 2/10; visual acuity, left eye, after treatment (Leber's optic neuropathy; patient two, zero prior to treatment): 1/20; visual acuity, both eyes, after treatment [2]: 5/10; vision as indicated by visual acuity [3]: greatly improved; vision as indicated by visual acuity ([4]; one patient (alpha), eye drop formulation 2% (w/v) twice a day for 3 months): improvement in vision; vision as indicated by visual acuity ([4]; other patient (alpha), intravitreal 2% (w/v), 0.1 to 0.2 ml, once every 15 days, three injections): improvement in vision; vision as indicated by visual acuity ([5]; one patient (beta), eye drop formulation 2% (w/v) twice a day for 3 months): improvement in vision; vision as indicated by visual acuity ([5]; other patient (beta), intravitreal 2% (w/v), 0.1 to 0.2 ml, once every 15 days, three injections): improvement in vision |
| O=C(O)CN1C(=O)[C@@H](N[C@@H](CCc2ccccc2)C(=O)O)CCc2ccccc21 [benazeprilate] | improvement in visual acuity | – |
| COc1cc2c(cc1OC)CN(C(=O)[C@H](C)N[C@@H](CCc1ccccc1)C(=O)O)[C@H](C(=O)O)C2 [moexiprilate] | improvement in visual acuity | – |
| C[C@H](N[C@@H](CCc1ccccc1)C(=O)O)C(=O)N1[C@H](C(=O)O)C[C@H]2CCCC[C@@H]21 [trandolaprilate] | improvement in visual acuity | – |
| C[C@H](N[C@@H](CCc1ccccc1)C(=O)O)C(=O)N1CCC[C@H]1C(=O)O [enalaprilate] | improvement in visual acuity | – |
